Values after ≈ are worked out from the molar mass of the structure shown.
How the values were obtained:
[1] = system: Canis familiaris; assay: Tested for in vivo smooth muscle contractile activity, expressed as MI100 (dose to give 100 of motor index after ig administration).; format: functional, Canis lupus familiaris, Muscle tissue
[2] = system: Canis familiaris; assay: Tested for in vivo smooth muscle contractile activity, expressed as MI100 (dose to give 100 of motor index after iv administration); format: functional, Canis lupus familiaris, Muscle tissue
[3] = target: T1, Motilin receptor (Oryctolagus cuniculus, UniProt A5A4K8); assay: Concentration required for in vitro acid stability with hydrochloric acid solution (pH 2.5 ) at room temperature for 2 hr by assaying the solution for motilin receptor binding
[4] = species: Oryctolagus cuniculus; assay: Concentration required for in vitro smooth muscle contractile activity of the compound, expressed as negative logarithm of EC50; format: functional; conditions: Muscle tissue
[5] = system: Streptococcus pneumoniae; assay: Antibacterial activity against Streptococcus pneumoniae No.12, activity expressed as MIC; format: functional
[6] = target: T1, Motilin receptor; assay: Concentration required for in vitro motilin receptor binding, expressed as negative logarithm of IC50
[7] = system: Bacillus subtilis; assay: Antibacterial activity against Bacillus subtilis ATCC 6633, activity expressed as MIC; format: functional
[8] = system: Klebsiella pneumoniae; assay: Antibacterial activity against Klebsiella pneumoniae IFO 3512, activity expressed as MIC; format: functional
[9] = system: Staphylococcus aureus; assay: Antibacterial activity against Staphylococcus aureus 209P, activity expressed as MIC; format: functional
[10] = system: Escherichia coli; assay: Antibacterial activity against Escherichia coli NIHJ JC-2, activity expressed as MIC; format: functional

T1 sequence (A5A4K8 whole entry): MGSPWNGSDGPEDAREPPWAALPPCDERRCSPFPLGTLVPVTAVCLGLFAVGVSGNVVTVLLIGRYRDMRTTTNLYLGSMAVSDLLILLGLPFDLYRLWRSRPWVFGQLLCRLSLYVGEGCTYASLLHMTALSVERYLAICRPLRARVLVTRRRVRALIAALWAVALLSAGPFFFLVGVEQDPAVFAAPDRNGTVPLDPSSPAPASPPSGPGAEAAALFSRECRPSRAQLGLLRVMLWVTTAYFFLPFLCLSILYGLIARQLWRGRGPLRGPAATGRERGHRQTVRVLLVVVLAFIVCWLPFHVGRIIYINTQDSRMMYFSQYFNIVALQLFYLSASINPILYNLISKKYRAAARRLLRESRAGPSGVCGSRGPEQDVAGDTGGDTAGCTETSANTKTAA

Compound	IC50 [3] [nM]	EC50 [4] [nM]	MIC [5] [µg/mL]	IC50 [6] [nM]	MIC [7] [µg/mL]	MIC [8] [µg/mL]	MIC [9] [µg/mL]	MIC [10] [µg/mL]	MI100 [1] [µg/kg]	MI100 [2] [µg/kg]
CCC1OC(=O)C(C)C(O[C@H]2C[C@@](C)(OC)[C@@H](O)C(C)O2)C(C)[C@@H](OC2OC(C)CC(N(C)CC)[C@H]2O)[C@]2(C)CC(C)=C(O2)[C@H](C)C(=O)[C@]1(C)OC (some centres undefined)	6.46	43.7	50 (≈ 67.4 µM)	3.8					4.3	1.1
CCC1OC(=O)C(C)C(O[C@H]2C[C@@](C)(OC)[C@@H](O)C(C)O2)C(C)[C@@H](OC2OC(C)CC(N(C)C)[C@H]2O)[C@]2(C)CC(C)=C(O2)[C@H](C)C(=O)[C@]1(C)OC (some centres undefined)	8.91	117	3.1 (≈ 4.26 µM)	9.12	6.3 (≈ 8.65 µM)	100 (≈ 137 µM)	13 (≈ 17.9 µM)		2.4	2.9
CCC1OC(=O)C(C)C(O[C@H]2C[C@@](C)(OC)[C@@H](O)C(C)O2)C(C)[C@@H](OC2OC(C)CC(N(C)C(C)C)[C@H]2O)[C@]2(C)CC(C)=C(O2)[C@H](C)C(=O)[C@]1(C)OC (some centres undefined)	7.94	38.9		6.03					1.5	1
CCC1OC(=O)C(C)C(O[C@H]2C[C@@](C)(OC)[C@@H](O)C(C)O2)C(C)[C@@H](OC2OC(C)CC(N(C)C)[C@H]2O)[C@]2(C)CC(C)C3(O[C@]1(C)[C@H](O)[C@H]3C)O2 (some centres undefined)	170	> 10000		155						>70

The remaining compounds from weak to strong by IC50 [3], led by results:

IC50 [3] [nM]	EC50 [4] [nM]	MIC [5] [µg/mL]	IC50 [6] [nM]	MIC [7] [µg/mL]	MIC [8] [µg/mL]	MIC [9] [µg/mL]	MIC [10] [µg/mL]	Compound	MI100 [1] [µg/kg]	MI100 [2] [µg/kg]
302	47.9	25 (≈ 34.2 µM)	3.16	100 (≈ 137 µM)				CCC1OC(=O)C(C)C(O[C@H]2C[C@@](C)(OC)[C@@H](O)C(C)O2)C(C)[C@@H](OC2OC(C)CC(N(C)CC)[C@H]2O)[C@]2(C)CC(C)=C(O2)[C@H](C)[C@@H](O)[C@]1(C)O (some centres undefined)	14.9	0.9
224	41.7		3.39					CC[C@H]1OC(=O)[C@H](C)[C@@H](O[C@H]2C[C@@](C)(OC)[C@@H](O)[C@H](C)O2)[C@H](C)[C@@H](O[C@@H]2O[C@H](C)C[C@H](N(C)C)[C@H]2O)[C@@]2(C)CC(C)=C(O2)[C@H](C)[C@@H](O)[C@]1(C)O		1
70.8	316	0.1 (≈ 0.136 µM)	43.7	0.39 (≈ 0.531 µM)	6.3 (≈ 8.58 µM)	0.39 (≈ 0.531 µM)	100 (≈ 136 µM)	CCC1OC(=O)C(C)C(O[C@H]2C[C@@](C)(OC)[C@@H](O)C(C)O2)C(C)[C@@H](OC2OC(C)CC(N(C)C)[C@H]2O)[C@@](C)(O)C[C@@H](C)C(=O)[C@H](C)[C@@H](O)[C@]1(C)O (some centres undefined)		32.3

From ChEMBL document CHEMBL1127899, “Potent, acid-stable and orally active macrolide-type motilin receptor agonists, GM-611 and the derivatives” (Bioorg Med Chem Lett, 1994)
